Drawing on paper PMC5608031 (Hormone molecular biology and clinical investigation, 2017), this text covers Kd for one compound.

The experiment deals with human cytosolic sulfotransferase 1C4 (hSULT1C4) (Homo sapiens, UniProt O75897). Kind of experiment: biochemical. The format is binding.

Molecules are shown by their SMILES.

Sequence of human cytosolic sulfotransferase 1C4 (hSULT1C4) (O75897 whole entry): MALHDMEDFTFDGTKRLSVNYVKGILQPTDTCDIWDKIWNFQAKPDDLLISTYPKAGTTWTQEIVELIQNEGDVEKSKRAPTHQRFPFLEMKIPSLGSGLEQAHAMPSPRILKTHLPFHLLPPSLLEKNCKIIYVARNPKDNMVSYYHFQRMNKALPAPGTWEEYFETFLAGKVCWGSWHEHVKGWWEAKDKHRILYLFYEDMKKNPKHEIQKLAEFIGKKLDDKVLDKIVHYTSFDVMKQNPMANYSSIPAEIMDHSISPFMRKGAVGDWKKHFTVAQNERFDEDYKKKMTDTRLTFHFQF

The Kd is the free concentration of one partner at which half of the binding sites on the other are occupied at equilibrium, for simple one-to-one binding. The low end stands for tighter binding, the high end for weaker binding. `Nc1ncnc2c1ncn2[C@@H]1O[C@H](COP(=O)(O)O)[C@@H](OP(=O)(O)O)[C@H]1O` [PAP] showed a Kd of 2.8 ± 0.2 µM.
